Measurements taken from US9737504B2, “Dihydroorotic and acid dehydrogenase inhibitor” (NAI INC., priority 2012, dated 2017).
Like-named read-outs stand apart in the source and are kept apart here.

Experiments:
[1] = test system: NCI-H522; experiment: JFCR39 cancer cell growth inhibition test, NCI-H522; type: cell-based; details: Homo sapiens; NCI-H522, Lu (Lung)
[2] = test system: ACHN; experiment: JFCR39 cancer cell growth inhibition test, ACHN; type: cell-based; details: Homo sapiens, Re (Renal)
[3] = test system: RXF-631L; experiment: JFCR39 cancer cell growth inhibition test, RXF-631L; type: cell-based; details: Homo sapiens, Re (Renal)
[4] = test system: HCT-15; experiment: JFCR39 cancer cell growth inhibition test, HCT-15; type: cell-based; details: Homo sapiens; HCT-15, Co (Colon)
[5] = test system: HBC-4; experiment: JFCR39 cancer cell growth inhibition test, HBC-4; type: cell-based; details: Homo sapiens, HBC4; HBC-4, Br (Breast)
[6] = test system: OVCAR-8; experiment: JFCR39 cancer cell growth inhibition test, OVCAR-8; type: cell-based; details: Homo sapiens; OVCAR-8, Ov (Ovarian)
[7] = test system: SNB-75; experiment: JFCR39 cancer cell growth inhibition test, SNB-75; type: cell-based; details: Homo sapiens; SNB-75, CNS (Central Nervous Systems)
[8] = test system: OVCAR-4; experiment: JFCR39 cancer cell growth inhibition test, OVCAR-4; type: cell-based; details: Homo sapiens; OVCAR-4, Ov (Ovarian)
[9] = test system: NCI-H226; experiment: JFCR39 cancer cell growth inhibition test, NCI-H226; type: cell-based; details: Homo sapiens; NCI-H226, Lu (Lung)
[10] = test system: MDA-MB-231; experiment: JFCR39 cancer cell growth inhibition test, MDA-MB-231; type: cell-based; details: Homo sapiens; MDA-MB-231, Br (Breast)
[11] = test system: MKN45; experiment: JFCR39 cancer cell growth inhibition test, MKN45; type: cell-based; details: Homo sapiens, MKN-45; MKN45, St (Stomac)
[12] = test system: SF-295; experiment: JFCR39 cancer cell growth inhibition test, SF-295; type: cell-based; details: Homo sapiens; SF-295, CNS (Central Nervous Systems)
[13] = test system: PC-3; experiment: JFCR39 cancer cell growth inhibition test, PC-3; type: cell-based; details: Homo sapiens; PC-3, xPg (Prostate)
[14] = test system: SF-539; experiment: JFCR39 cancer cell growth inhibition test, SF-539; type: cell-based; details: Homo sapiens; SF-539, CNS (Central Nervous Systems)
[15] = test system: BSY-1; experiment: JFCR39 cancer cell growth inhibition test, BSY-1; type: cell-based; details: Homo sapiens; BSY-1, Br (Breast)
[16] = test system: MKN7; experiment: JFCR39 cancer cell growth inhibition test, MKN7; type: cell-based; details: Homo sapiens, MKN-7; MKN7, St (Stomac)
[17] = test system: OVCAR-5; experiment: JFCR39 cancer cell growth inhibition test, OVCAR-5; type: cell-based; details: Homo sapiens; OVCAR-5, Ov (Ovarian)
[18] = test system: SK-OV-3; experiment: JFCR39 cancer cell growth inhibition test, SK-OV-3; type: cell-based; details: Homo sapiens; SK-OV-3, Ov (Ovarian)
[19] = test system: MCF-7; experiment: JFCR39 cancer cell growth inhibition test, MCF-7; type: cell-based; details: Homo sapiens, MCF7; MCF-7, Br (Breast)
[20] = test system: SNB-78; experiment: JFCR39 cancer cell growth inhibition test, SNB-78; type: cell-based; details: Homo sapiens; SNB-78, CNS (Central Nervous Systems)
[21] = test system: MKN1; experiment: JFCR39 cancer cell growth inhibition test, MKN1; type: cell-based; details: Homo sapiens, MKN-1; MKN1, St (Stomac)
[22] = test system: HDF cells (human dermal fibroblast cells); experiment: Inhibitory effect on HDF cells, control vs hypoxic and subnutritional conditions; type: cell-based; details: for IC50: Homo sapiens, HDF normal skin cells
Procedure: (§1) For these reasons, cells of colorectal and pancreatic cancers, each being regarded as intractable, were used to test the inhibitory effect of compounds under hypoxic and subnutritional conditions. Moreover, the same test was also performed on normal skin cells.
The cells used were two types of cancer cells, i.e., DLD-1 cells (human colorectal cancer cells) and Panc-1 cells (human pancreatic cells), as well as HDF cells (human dermal fibroblast cells).

[23] = test system: DU-145; experiment: JFCR39 cancer cell growth inhibition test, DU-145; type: cell-based; details: Homo sapiens; DU-145, xPg (Prostate)
[24] = test system: St-4; experiment: JFCR39 cancer cell growth inhibition test, St-4; type: cell-based; details: Homo sapiens; St-4, St (Stomac)
[25] = test system: L0X-IMVI; experiment: JFCR39 cancer cell growth inhibition test, L0X-IMVI; type: cell-based; details: Homo sapiens, Me (Melanoma)
[26] = molecular target: human DHOD (Homo sapiens, UniProt Q02127); experiment: Measurement of DHOD inhibitory activity (DCIP reduction, end point assay); type: biochemical
human DHOD, sequence (Q02127 whole entry): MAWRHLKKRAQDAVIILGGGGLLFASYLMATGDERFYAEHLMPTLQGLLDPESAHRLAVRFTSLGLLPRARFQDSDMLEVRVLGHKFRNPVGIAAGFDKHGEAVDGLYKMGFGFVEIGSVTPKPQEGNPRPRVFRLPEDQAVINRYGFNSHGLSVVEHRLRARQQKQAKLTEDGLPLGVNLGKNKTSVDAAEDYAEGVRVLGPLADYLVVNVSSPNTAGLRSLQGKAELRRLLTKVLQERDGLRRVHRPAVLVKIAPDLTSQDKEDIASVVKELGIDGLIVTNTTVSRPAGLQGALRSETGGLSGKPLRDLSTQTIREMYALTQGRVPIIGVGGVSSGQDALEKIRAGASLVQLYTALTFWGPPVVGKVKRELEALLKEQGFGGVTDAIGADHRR
Procedure: The compounds of the present invention were used and measured for their DHOD inhibitory activity at concentrations of 200 nM and 1000 nM.
Reduction of DCIP was measured at 600 nm over 20 minutes.

[27] = test system: DMS114; experiment: JFCR39 cancer cell growth inhibition test, DMS114; type: cell-based; details: Homo sapiens, DMS-114; DMS114, Lu (Lung)
[28] = test system: HBC-5; experiment: JFCR39 cancer cell growth inhibition test, HBC-5; type: cell-based; details: Homo sapiens, HBC5; HBC-5, Br (Breast)
[29] = test system: NCI-H460; experiment: JFCR39 cancer cell growth inhibition test, NCI-H460; type: cell-based; details: Homo sapiens; NCI-H460, Lu (Lung)
[30] = test system: Panc-1 cells (human pancreatic cells); experiment: Inhibitory effect on Panc-1 cells, control vs hypoxic and subnutritional conditions; type: cell-based; details: for IC50: Homo sapiens
Procedure: as §1
The cells used were two types of cancer cells, i.e., DLD-1 cells (human colorectal cancer cells) and Panc-1 cells (human pancreatic cells), as well as HDF cells (human dermal fibroblast cells). Culture conditions were set as follows: 21% oxygen with glucose and […] (10% FBS) for the control group, and 1% oxygen without glucose and […] (10% FBS) for the hypoxic and subnutritional group. The results obtained are shown in Tables 3, 4 and 5, as well as FIGS. 1, 2 and 3.

[31] = test system: MKN74; experiment: JFCR39 cancer cell growth inhibition test, MKN74; type: cell-based; details: Homo sapiens, MKN-74; MKN74, St (Stomac)
[32] = test system: NCI-H23; experiment: JFCR39 cancer cell growth inhibition test, NCI-H23; type: cell-based; details: Homo sapiens; NCI-H23, Lu (Lung)
[33] = test system: SF-268; experiment: JFCR39 cancer cell growth inhibition test, SF-268; type: cell-based; details: Homo sapiens; SF-268, CNS (Central Nervous Systems)
[34] = test system: U251; experiment: JFCR39 cancer cell growth inhibition test, U251; type: cell-based; details: Homo sapiens, U-251; U251, CNS (Central Nervous Systems)

Structure (SMILES): C/C(=C\Cc1c(O)c(Cl)c(C)c(C=O)c1O)CC/C=C(\C)[C@@H]1CC(=O)C(C)(C)O1 (racemic) [Ascofuranone, dl-5-Chloro-2,4-dihydroxy-6-methyl-3-[(2E,6E)-3-methyl-7-(3,3-dimethyl-4-oxo-2-oxacyclopentyl)-2,6-octadienyl]benzaldehyde]
- GI50 [1]: 8.4 µM
- GI50 [2]: 10 µM
- GI50 [3]: 12 µM
- GI50 [4]: 1300 nM
- GI50 [5]: 9.1 µM
- GI50 [6]: 9.5 µM
- GI50 [7]: 23 µM
- GI50 [8]: 5.9 µM
- GI50 [9]: 15 µM
- GI50 [10]: 7.4 µM
- GI50 [11]: 10 µM
- GI50 [12]: 5.3 µM
- GI50 [13]: 13 µM
- GI50 [14]: 1700 nM
- GI50 [15]: 16 µM
- GI50 [16]: 15 µM
- GI50 [17]: 7.6 µM
- GI50 [18]: 13 µM
- GI50 [19]: 9 µM
- GI50 [20]: 23 µM
- GI50 [21]: 14 µM
- Selectivity = 21% glc(+)gln(+) IC50/1% glc(−)gln(−) IC50 ([22]; HDF): >63
- IC50 ([22]; read-out: IC50 [μM] 1% O2 glc(−)gln(−), 1% O2 glc(−)gln(−)): 1.6 µM
- IC50 ([22]; 21% O2 glc(+)gln(+), read-out: IC50 [μM] 21% O2 glc(+)gln(+)): > 100 µM
- GI50 [23]: 11 µM
- GI50 [24]: 14 µM
- GI50 [25]: 2800 nM
- inhibition at 0.2 µM ([26]; read-out: DHOD inhibition rate (%) 200 nM, 200 nM compound): 73%
- IC50 ([26]; read-out: IC50 (nM) human DHOD (HsDHOD)): 38 nM
- GI50 [27]: 19 µM
- GI50 [28]: 28 µM
- GI50 [29]: 2000 nM
- IC50 ([30]; read-out: IC50 [μM] 1% O2 glc(−)gln(−), Panc-1, 1% O2 glc(−)gln(−)): 1.4 µM
- IC50 ([30]; Panc-1, 21% O2 glc(+)gln(+), read-out: IC50 [μM] 21% O2 glc(+)gln(+)): > 100 µM
- Selectivity = 21% glc(+)gln(+) IC50/1% glc(−)gln(−) IC50 ([30]; Panc-1): >71
- GI50 [31]: 13 µM
- GI50 [32]: 15 µM
- GI50 [33]: 7 µM
- GI50 [34]: 1500 nM
